Assay results reported in US8192962B2, “Processes for detecting toxic substances” (Daikin Industries, Ltd., priority 2001, dated 2012).

Tested on: Transport facilitation protein genes
Assay: DNA chip mRNA expression in yeast, transport facilitation protein genes (Table 5)
Assay type: cell-based, Saccharomyces cerevisiae S288C
In short: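 S. cerevisiae S288C grown at 25° C. in YPD to log phase, then exposed 2 h to a toxicant at a growth-inhibiting, non-lethal concentration; untreated cells as control. Poly(A) mRNA reverse-transcribed with Cy3-dUTP or Cy5-dUTP, hybridized >12 h at 65° C. to whole-genome yeast DNA chip; value = fluorescence ratio treated/untreated.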

`COc1cc(CNC(=O)CCCCC=CC(C)C)ccc1O` [(12), 8-methyl-N-vanillyl-6-nonenamide] was tested, and the “The level of expressed mRNA in the presence of chemical substance/The level of expressed mRNA in the absence of chemical substance” value (yeast gene YGR281W) was 2.4, the “The level of expressed mRNA in the presence of chemical substance/The level of expressed mRNA in the absence of chemical substance” value (yeast gene YHL035C) was 1.4 and the “The level of expressed mRNA in the presence of chemical substance/The level of expressed mRNA in the absence of chemical substance” value (yeast gene YHL040C) was 2.0. The “The level of expressed mRNA in the presence of chemical substance/The level of expressed mRNA in the absence of chemical substance” value (yeast gene YHL047C) was 2.6, the “The level of expressed mRNA in the presence of chemical substance/The level of expressed mRNA in the absence of chemical substance” value (yeast gene YHR026W) was 0.7 and the “The level of expressed mRNA in the presence of chemical substance/The level of expressed mRNA in the absence of chemical substance” value (yeast gene YHR092C) was 1.0. For the same molecule, the “The level of expressed mRNA in the presence of chemical substance/The level of expressed mRNA in the absence of chemical substance” value (yeast gene YHR094C) was 0.9, the “The level of expressed mRNA in the presence of chemical substance/The level of expressed mRNA in the absence of chemical substance” value (yeast gene YHR175W) was 1.4 and the “The level of expressed mRNA in the presence of chemical substance/The level of expressed mRNA in the absence of chemical substance” value (yeast gene YIL006W) was 0.9. The “The level of expressed mRNA in the presence of chemical substance/The level of expressed mRNA in the absence of chemical substance” value (yeast gene YIL022W) was 0.9, the “The level of expressed mRNA in the presence of chemical substance/The level of expressed mRNA in the absence of chemical substance” value (yeast gene YIL056W) was 1.0 and the “The level of expressed mRNA in the presence of chemical substance/The level of expressed mRNA in the absence of chemical substance” value (yeast gene YIL088C) was 0.9. For the same molecule, the “The level of expressed mRNA in the presence of chemical substance/The level of expressed mRNA in the absence of chemical substance” value (yeast gene YJL034W) was 1.6, the “The level of expressed mRNA in the presence of chemical substance/The level of expressed mRNA in the absence of chemical substance” value (yeast gene YJL212C) was 0.4 and the “The level of expressed mRNA in the presence of chemical substance/The level of expressed mRNA in the absence of chemical substance” value (yeast gene YJL219W) was 1.1. For the same molecule, the “The level of expressed mRNA in the presence of chemical substance/The level of expressed mRNA in the absence of chemical substance” value (yeast gene YJR077C) was 1.0, the “The level of expressed mRNA in the presence of chemical substance/The level of expressed mRNA in the absence of chemical substance” value (yeast gene YJR106W) was 0.9 and the “The level of expressed mRNA in the presence of chemical substance/The level of expressed mRNA in the absence of chemical substance” value (yeast gene YJR121W) was 0.8. For the same molecule, the “The level of expressed mRNA in the presence of chemical substance/The level of expressed mRNA in the absence of chemical substance” value (yeast gene YKL016C) was 1.0, the “The level of expressed mRNA in the presence of chemical substance/The level of expressed mRNA in the absence of chemical substance” value (yeast gene YKL146W) was 1.1 and the “The level of expressed mRNA in the presence of chemical substance/The level of expressed mRNA in the absence of chemical substance” value (yeast gene YKR039W) was 1.5. For the same molecule, the “The level of expressed mRNA in the presence of chemical substance/The level of expressed mRNA in the absence of chemical substance” value (yeast gene YKR067W) was 1.0, the “The level of expressed mRNA in the presence of chemical substance/The level of expressed mRNA in the absence of chemical substance” value (yeast gene YLL028W) was 1.3 and the “The level of expressed mRNA in the presence of chemical substance/The level of expressed mRNA in the absence of chemical substance” value (yeast gene YLL055W) was 0.7. For the same molecule, the “The level of expressed mRNA in the presence of chemical substance/The level of expressed mRNA in the absence of chemical substance” value (yeast gene YLR081W) was 1.0, the “The level of expressed mRNA in the presence of chemical substance/The level of expressed mRNA in the absence of chemical substance” value (yeast gene YLR295C) was 0.5 and the “The level of expressed mRNA in the presence of chemical substance/The level of expressed mRNA in the absence of chemical substance” value (yeast gene YLR348C) was 0.9. For the same molecule, the “The level of expressed mRNA in the presence of chemical substance/The level of expressed mRNA in the absence of chemical substance” value (yeast gene YLR378C) was 1.2, the “The level of expressed mRNA in the presence of chemical substance/The level of expressed mRNA in the absence of chemical substance” value (yeast gene YML116W) was 0.5 and the “The level of expressed mRNA in the presence of chemical substance/The level of expressed mRNA in the absence of chemical substance” value (yeast gene YMR011W) was 0.8. For the same molecule, the “The level of expressed mRNA in the presence of chemical substance/The level of expressed mRNA in the absence of chemical substance” value (yeast gene YMR162C) was 0.7, the “The level of expressed mRNA in the presence of chemical substance/The level of expressed mRNA in the absence of chemical substance” value (yeast gene YMR203W) was 0.7 and the “The level of expressed mRNA in the presence of chemical substance/The level of expressed mRNA in the absence of chemical substance” value (yeast gene YNL055C) was 1.7. For the same molecule, the “The level of expressed mRNA in the presence of chemical substance/The level of expressed mRNA in the absence of chemical substance” value (yeast gene YNL259C) was 0.7, the “The level of expressed mRNA in the presence of chemical substance/The level of expressed mRNA in the absence of chemical substance” value (yeast gene YNR072W) was 1.0 and the “The level of expressed mRNA in the presence of chemical substance/The level of expressed mRNA in the absence of chemical substance” value (yeast gene YOL119C) was 0.9. The “The level of expressed mRNA in the presence of chemical substance/The level of expressed mRNA in the absence of chemical substance” value (yeast gene YOL156W) was 0.9, the “The level of expressed mRNA in the presence of chemical substance/The level of expressed mRNA in the absence of chemical substance” value (yeast gene YOL163W) was 1.0 and the “The level of expressed mRNA in the presence of chemical substance/The level of expressed mRNA in the absence of chemical substance” value (yeast gene YOR035C) was 1.1. For the same molecule, the “The level of expressed mRNA in the presence of chemical substance/The level of expressed mRNA in the absence of chemical substance” value (yeast gene YOR130C) was 0.9, the “The level of expressed mRNA in the presence of chemical substance/The level of expressed mRNA in the absence of chemical substance” value (yeast gene YOR153W) was 4.0 and the “The level of expressed mRNA in the presence of chemical substance/The level of expressed mRNA in the absence of chemical substance” value (yeast gene YOR270C) was 0.7. The “The level of expressed mRNA in the presence of chemical substance/The level of expressed mRNA in the absence of chemical substance” value (yeast gene YOR273C) was 0.8, the “The level of expressed mRNA in the presence of chemical substance/The level of expressed mRNA in the absence of chemical substance” value (yeast gene YOR316C) was 1.1 and the “The level of expressed mRNA in the presence of chemical substance/The level of expressed mRNA in the absence of chemical substance” value (yeast gene YOR328W) was 1.8. The “The level of expressed mRNA in the presence of chemical substance/The level of expressed mRNA in the absence of chemical substance” value (yeast gene YOR332W) was 1.0, the “The level of expressed mRNA in the presence of chemical substance/The level of expressed mRNA in the absence of chemical substance” value (yeast gene YOR348C) was 0.7 and the “The level of expressed mRNA in the presence of chemical substance/The level of expressed mRNA in the absence of chemical substance” value (yeast gene YPL036W) was 0.5. For the same molecule, the “The level of expressed mRNA in the presence of chemical substance/The level of expressed mRNA in the absence of chemical substance” value (yeast gene YPL134C) was 0.8, the “The level of expressed mRNA in the presence of chemical substance/The level of expressed mRNA in the absence of chemical substance” value (yeast gene YPL265W) was 0.9 and the “The level of expressed mRNA in the presence of chemical substance/The level of expressed mRNA in the absence of chemical substance” value (yeast gene YPL271W) was 0.8. The “The level of expressed mRNA in the presence of chemical substance/The level of expressed mRNA in the absence of chemical substance” value (yeast gene YPR124W) was 0.8, the “The level of expressed mRNA in the presence of chemical substance/The level of expressed mRNA in the absence of chemical substance” value (yeast gene YPR192W) was 0.5 and the “The level of expressed mRNA in the presence of chemical substance/The level of expressed mRNA in the absence of chemical substance” value (yeast gene YPR194C) was 0.7.
